Measurements published in patent US10214535B2, “Hydroxmethyl piperidine orexin receptor antagonists” (MERCK SHARP & DOHME CORP., priority 2014, dated 2019).
Like-named read-outs stand apart in the source and are kept apart here.

Columns and labels:
human orexin-2 receptor = human orexin-2 receptor (Homo sapiens (Human), UniProt O43614); experiment: hOX2R FLIPR Ca2+ flux assay; type: cell-based; conditions: CHO cells expressing the human orexin-2 receptor; agonist 70 pM Ala-6,12 orexin-A
Description: In a typical experiment the OX1 and OX2 receptor antagonistic activity of the compounds of the present invention was determined in accordance with the following experimental method. For intracellular calcium measurements, Chinese hamster ovary (CHO) cells expressing the rat orexin-1 receptor or the human orexin-2 receptor, are grown in Iscove's modified DMEM containing 2 mM L-glutamine, […], 1% hypoxanthine-thymidine supplement, 100 U/ml penicillin, 100 μg/ml streptomycin and 10% heat-inactivated fetal calf serum (FCS). The cells are seeded at 20,000 cells/well into Becton-Dickinson black 384-well clear bottom sterile plates coated with poly-D-lysine. All reagents were from GIBCO-Invitrogen Corp. The seeded plates are incubated overnight at 37° C. and 5% CO2. Ala-6,12 human orexin-A as the agonist is prepared as a 1 mM stock solution in 1% bovine serum albumin (BSA) and diluted in assay buffer (HBSS containing 20 mM HEPES, 0.1% BSA and 2.5 mM probenecid, pH7.4) for use in the assay at a final concentration of 70 pM. Test compounds are prepared as 10 mM stock solution in DMSO, then diluted in 384-well plates, first in DMSO, then assay buffer. On the day of the assay, cells are washed 3 times with 100 μl assay buffer and then incubated for 60 min (37° C., 5% CO2) in 60 μl assay buffer containing 1 μM Fluo-4AM ester, 0.02% pluronic acid, and 1% BSA. The dye loading solution is then aspirated and cells are washed 3 times with 100 μl assay buffer. 30 μl of that same buffer is left in each well. Within the Fluorescent Imaging Plate Reader (FLIPR, Molecular Devices), test compounds are added to the plate in a volume of 25 μl, incubated for 5 min and finally 25 μl of agonist is added. Fluorescence is measured for each well at 1 second intervals for 5 minutes and the height of each fluorescence peak is compared to the height of the fluorescence peak induced by 70 pM Ala-6,12 orexin-A with buffer in place of antagonist. For each antagonist, IC50 value (the concentration of compound needed to inhibit 50% of the agonist response) is determined. Alternatively, compound potency can be assessed by a radioligand binding assay (described in Bergman et. al. Bioorg. Med. Chem. Lett. 2008, 18, 1425-1430) in which the inhibition constant (Ki) is determined in membranes prepared from CHO cells expressing either the OX1 or OX2 receptor. The intrinsic orexin receptor antagonist activity of a compound which may be used in the present invention may be determined by these assays.

hOX1R = hOX1R (Homo sapiens, UniProt O43613); experiment: hOX1R FLIPR Ca2+ flux assay; type: cell-based
[1] = CHO cells expressing orexin-1 receptor, agonist 70 pM Ala-6,12 orexin-A, read-out: hOX1R FLIPR IC50

Chain of human orexin-2 receptor (O43614 whole entry): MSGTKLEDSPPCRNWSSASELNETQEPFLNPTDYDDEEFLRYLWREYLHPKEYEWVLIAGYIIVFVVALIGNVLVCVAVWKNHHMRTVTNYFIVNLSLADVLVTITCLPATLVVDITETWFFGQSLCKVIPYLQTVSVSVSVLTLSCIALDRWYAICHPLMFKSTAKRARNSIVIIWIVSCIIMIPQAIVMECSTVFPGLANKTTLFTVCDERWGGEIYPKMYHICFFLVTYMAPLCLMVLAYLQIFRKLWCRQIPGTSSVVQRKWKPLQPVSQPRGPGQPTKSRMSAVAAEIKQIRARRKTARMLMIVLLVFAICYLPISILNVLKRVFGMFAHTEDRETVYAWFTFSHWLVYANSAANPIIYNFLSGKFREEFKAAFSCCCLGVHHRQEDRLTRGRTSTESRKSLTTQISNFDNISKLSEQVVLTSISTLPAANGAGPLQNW

Row | Structure (SMILES) | IC50 (human orexin-2 receptor) | IC50 (hOX1R; [1]) | IC50 (hOX1R)
1 | COC(=O)c1c(C#N)cccc1O[C@@H]1CC[C@@H](CO)N(C(=O)c2ccccc2-n2nccn2)C1 [Example 4, methyl 2-cyano-6-{[(3R,6S)-6-(hydroxymethyl)-1-{[2-(2H-1,2,3-triazol-2-yl)phenyl]carbonyl}piperidin-3-yl]oxy} benzoate] | 49 nM | > 10000 nM | 
2 | CC1(C)OC(=O)c2c1ccnc2O[C@@H]1CC[C@@H](CO)N(C(=O)c2ccccc2-n2nccn2)C1 [Example 2, 4-{[(3R,6S)-6-(Hydroxymethyl)-1-{[2-(2H-1,2,3-triazol-2-yl)phenyl]carbonyl}piperidin-3-yl]oxy}-1,1-dimethylfuro[3,4-c]pyridin-3(1H)-one] | 21 nM | > 10000 nM | 
3 | O=C(c1ccccc1-n1nccn1)N1C[C@H](Oc2cc(OCC(F)F)ccn2)CC[C@H]1CO [Example 6, [(2S,5R)-5-{[4-(2,2-difluoroethoxy)pyridin-2-yl]oxy}-1-{[2-(2H-1,2,3-triazol-2-yl)phenyl]carbonyl}piperidin-2-yl]methanol] | 60 nM |  | > 10000 nM
4 | COc1c(C#N)ccnc1O[C@@H]1CC[C@@H](CO)N(C(=O)c2cccnc2OCC(F)(F)F)C1 [Example 11, 2-{[(3R,6S)-6-(hydroxymethyl)-1-{[2-(2,2,2-trifluoroethoxy)pyridin-3-yl]carbonyl}piperidin-3-yl]oxy}-3-methoxypyridine-4-carbonitrile] | 9 nM | 4080 nM | 
5 | COc1c(C#N)ccnc1O[C@@H]1CC[C@@H](CO)N(C(=O)c2ccccc2OC(F)F)C1 [Example 13, 2-{[(3R,6S)-1-{[2-(difluoromethoxy)phenyl]carbonyl}-6-(hydroxymethyl)piperidin-3-yl]oxy}-3-methoxypyridine-4-carbonitrile] | 39 nM | > 10000 nM | 
6 | Cc1ccnc(O[C@@H]2CC[C@@H](CO)N(C(=O)c3ccccc3-n3nccn3)C2)c1 [Example 5, [(2S,5R)-5-[(4-methylpyridin-2-yl)oxy]-1-{[2-(2H-1,2,3-triazol-2-yl)phenyl]carbonyl}piperidin-2-yl]methanol] | 18 nM | 1710 nM | 
7 | COC(=O)c1c(OC)cccc1O[C@@H]1CC[C@@H](CO)N(C(=O)c2ccccc2-n2nccn2)C1 [Example 1, Methyl 2-{[(3R,6S)-6-(hydroxymethyl)-1-{[2-(2H-1,2,3-triazol-2-yl)phenyl]carbonyl}-piperidin-3-yl]oxy}-6-methoxybenzoate] | 198 nM | > 10000 nM | 
8 | CC(C)(O)[C@@H]1CC[C@@H](Oc2cc(C#N)ccn2)CN1C(=O)c1ccccc1-n1nccn1 [Example 15, 2-{[(3R,6S)-6-(1-Hydroxy-1-methylethyl)-1-{[2-(2H-1,2,3-triazol-2-yl)phenyl]carbonyl}-piperidin-3-yl]oxy}pyridine-4-carbonitrile] | 31 nM | > 10000 nM | 
9 | CCOc1ccccc1C(=O)N1C[C@H](Oc2nccc(C#N)c2OC)CC[C@H]1CO [Example 10, 2-{[(3R,6S)-1-[(2-Ethoxyphenyl)carbonyl]-6-(hydroxymethyl)piperidin-3-yl]oxy}-3-methoxypyridine-4-carbonitrile] | 12 nM | > 10000 nM | 
10 | N#Cc1ccnc(O[C@@H]2CC[C@@H](CO)N(C(=O)c3ccccc3-n3nccn3)C2)c1 [Example 3, 2-{[(3R,6S)-6-(hydroxymethyl)-1-{[2-(2H-1,2,3-triazol-2-yl)phenyl]carbonyl}piperidin-3-yl]oxy}pyridine-4-carbonitrile] | 17 nM | > 10000 nM | 
11 | COc1c(C#N)ccnc1O[C@@H]1CC[C@@H](CO)N(C(=O)c2ccccc2OC(F)(F)F)C1 [Example 14, 2-{[(3R,6S)-(hydroxymethyl)-1-{[2-(trifluoromethoxy)phenyl]carbonyl}piperidin-3-yl]oxy}-3-methoxypyridine-4-carbonitrile] | 14 nM | > 10000 nM | 
12 | Cc1c(C#N)ccnc1O[C@@H]1CC[C@@H](C(C)(C)O)N(C(=O)c2ccccc2-n2nccn2)C1 [Example 16, 2-{[(3R,6S)-6-(1-hydrox-1-methylethyl)-1-{[2-(2H-1,2,3-triazol-2-yl)phenyl]carbonyl}piperidin-3-yl]oxy}-3-methylpyridine-4-carbonitrile] | 27 nM | 1330 nM | 
13 | COc1c(C#N)ccnc1O[C@@H]1CC[C@@H](CO)N(C(=O)c2cccnc2OC(C)C)C1 [Example 12, 2-{[(3R,6S)-6-(hydroxymethyl)-1-{[2-(1-methylethoxy)pyridin-3-yl]carbonyl}piperidin-3-yl]oxy}-3-methoxypyridine-4-carbonitrile] | 27 nM | > 10000 nM | 
14 | Cc1c(C#N)ccnc1O[C@@H]1CC[C@@H](CO)N(C(=O)c2ccccc2-n2nccn2)C1 [Example 7, 2-{[(3R,6S)-6-(hydroxymethyl)-1-{[2-(2H-1,2,3-triazol-2-yl)phenyl]carbonyl}piperidin-3-yl]oxy}-3-methylpyridine-4-carbonitrile] | 8 nM | 1780 nM | 
